Test results reported in ChEMBL document CHEMBL1145918, “Synthesis, comparative photosensitizing efficacy, human serum albumin (site II) binding ability, and intracellular localization characteristics of novel benzobacteriochlorins derived from vic-dihydroxybacteriochlorins” (J Med Chem, 2003).

target: Albumin (Homo sapiens, UniProt P02768); assay: Compound was tested for its binding ability to site II of Human serum albumin (HSA) expressed as binding constant
Sequence (P02768 whole entry): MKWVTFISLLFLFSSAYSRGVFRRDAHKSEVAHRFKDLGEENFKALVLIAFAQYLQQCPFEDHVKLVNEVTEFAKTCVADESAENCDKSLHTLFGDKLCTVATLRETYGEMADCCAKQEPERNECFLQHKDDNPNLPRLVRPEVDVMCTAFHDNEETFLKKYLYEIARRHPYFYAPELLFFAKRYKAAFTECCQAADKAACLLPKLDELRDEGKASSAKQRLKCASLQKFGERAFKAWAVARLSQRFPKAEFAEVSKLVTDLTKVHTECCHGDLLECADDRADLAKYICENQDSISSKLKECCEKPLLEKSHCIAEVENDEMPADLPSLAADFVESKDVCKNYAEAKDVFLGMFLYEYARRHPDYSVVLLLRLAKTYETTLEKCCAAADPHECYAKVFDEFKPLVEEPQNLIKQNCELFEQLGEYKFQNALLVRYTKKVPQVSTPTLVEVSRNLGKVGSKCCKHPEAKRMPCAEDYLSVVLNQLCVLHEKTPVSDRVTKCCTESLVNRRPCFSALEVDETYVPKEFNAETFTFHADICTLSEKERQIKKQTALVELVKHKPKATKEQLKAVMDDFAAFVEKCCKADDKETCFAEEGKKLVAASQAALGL

Structure (SMILES) | K [M⁻¹]
CCCCCCN1C(=O)C2=C(C)c3cc4[nH]c(cc5[nH]c(cc6nc(c(c2n3)C1=O)[C@@H](CCC(=O)OC)[C@@H]6C)c(C)c5CC)C1(C)C4=CC=C(C(=O)OC)C1C(=O)OC (stereo not given in full) | 16100000
CCc1c(C)c2cc3nc(c4c5nc(cc6[nH]c(cc1[nH]2)C1(C)C6=CC=C(C(=O)OC)C1C(=O)OC)C(C)=C5C(=O)N(Cc1cc(C(F)(F)F)cc(C(F)(F)F)c1)C4=O)[C@@H](CCC(=O)OC)[C@@H]3C (stereo not given in full) | 16000000

Results, then the compound that gave them:

K [M⁻¹] | Structure (SMILES)
10600000 | CCc1c(C)c2cc3nc(c4c5nc(cc6[nH]c(cc1[nH]2)C1(C)C6=CC=C(C(=O)OC)C1C(=O)OC)C(C)=C5C(=O)C4)[C@@H](CCC(=O)OC)[C@@H]3C (stereo not given in full)
14400000 | CCc1c(C)c2cc3nc(c(C(=O)OC)c4nc(cc5[nH]c(cc1[nH]2)C1(C)C5=CC=C(C(=O)OC)C1C(=O)OC)C(C)=C4C(=O)OC)[C@@H](CCC(=O)OC)[C@@H]3C (stereo not given in full)
17500000 | CCc1c(C)c2cc3nc(c(CC(=O)OC)c4nc(cc5[nH]c(cc1[nH]2)C1(C)C5=CC=C(C(=O)OC)C1C(=O)OC)C(C)=C4C(=O)OC)[C@@H](CCC(=O)OC)[C@@H]3C (stereo not given in full)
